# Source: patent US20240174622A1, “COMPOUND AND RADIOACTIVE LABELING COMPOUND” (NIHON MEDI-PHYSICS CO., LTD., priority 2021, published 2024)
# Tests used:
# [1] = test system: LNCaP tumor; assay: SPECT/CT using LNCaP tumor-transplanted mouse; type: in vivo; conditions: 24 (and 48) hours after administration
# Experimental: (§1) LNCaP tumor-implanted mice prepared by the method described above were administered saline solutions (1.9 to 3.0 MBq, 150 μL) of [^111In]In-PSMA-DA1 or [^111In]In-PSMA-DB from the tail vein. SPECT/CT was performed 24 and 48 hours after administration with FX3300 pre-clinical imaging system, which is manufactured by Gamma Medica-Ideas. Imaging was performed using a pinhole collimator with a diameter of 1.0 mm at a rotation radius of 35 mm, a projection time of 70 seconds, and the number of projections of 32 times under isoflurane anesthesia. After SPECT, CT (Tube voltage: 60 kV, Tube current: 350 μA) was performed. Image reconstruction was performed on the projection data of SPECT through three-dimensional ordered subset expectation maximization method (8 subsets, 5 iterations).
# In the figure, the part indicated by the arrow is the location of the tumor, and the part indicated by the circle is the location of the kidney. The higher the SUV, the higher the radioactivity accumulation. […]
# as §1, with “SPECT/CT” for “LNCaP tumor-implanted mice prepared by the method described above were administered saline solutions (1.9 to 3.0 MBq, 150 μL) of [^111In]In-PSMA-DA1 or [^111In]In-PSMA-DB from the tail vein. SPECT/CT”, “24, 48,” for “24”, “96” for “48”
# [2] = test system: LNCaP tumor-transplanted mouse; assay: Internal radioactivity distribution using LNCaP tumor-transplanted mouse; type: in vivo
# Method in brief: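 Male SCID mice bearing subcutaneous LNCaP or PC-3 xenografts (40–60 days) received the 111In-labelled compound i.v. via tail vein (185–259 kBq in saline; n=2–3). Blood and organs collected at 1 to 192 hours post-dose, weighed and counted. Uptake expressed as %ID/g.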
compound,measurement,setting,value
"O=C([O-])CN1CCN(C(CCC(=O)NCCCC[C@H](NC(=O)N[C@@H](CCC(=O)O)C(=O)O)C(=O)O)C(=O)[O-])CCN(CC(=O)[O-])CCN(C(CCC(=O)Nc2ccccc2)C(=O)[O-])CC1.[111In+3] (stereo partly drawn) [[^111In]In-PSMA-DB, reference compound]",radioactivity accumulation at the LNCaP tumor in SPECT/CT,[1],lower than at the kidney
same,Blood,[2]; 1 h after administration,3.33 ± 0.21 % ID/g
same,Brain,[2]; 1 h after administration,0.06 ± 0.01 % ID/g
same,Heart,[2]; 1 h after administration,0.87 ± 0.33 % ID/g
same,Intestine,[2]; 1 h after administration,0.59 ± 0.14 % ID/g
same,Kidney,[2]; 1 h after administration,59.2 ± 35.2 % ID/g
same,LNCaP Tumor,[2]; 1 h after administration,3.36 ± 0.04 % ID/g
same,Liver,[2]; 1 h after administration,0.91 ± 0.20 % ID/g
same,Lung,[2]; 1 h after administration,2.24 ± 0.60 % ID/g
same,Muscle,[2]; 1 h after administration,0.23 ± 0.68 % ID/g
same,Pancreas,[2]; 1 h after administration,0.74 ± 0.25 % ID/g
same,Spleen,[2]; 1 h after administration,3.05 ± 0.53 % ID/g
same,Stomach (% ID),[2]; 1 h after administration,0.10 ± 0.04 % ID
same,Blood,[2]; 4 h after administration,2.00 ± 0.29 % ID/g
same,Brain,[2]; 4 h after administration,0.05 ± 0.00 % ID/g
same,Heart,[2]; 4 h after administration,0.60 ± 0.08 % ID/g
same,Intestine,[2]; 4 h after administration,1.05 ± 0.10 % ID/g
same,Kidney,[2]; 4 h after administration,22.7 ± 9.69 % ID/g
same,LNCaP Tumor,[2]; 4 h after administration,2.50 ± 0.50 % ID/g
same,Liver,[2]; 4 h after administration,0.95 ± 0.05 % ID/g
same,Lung,[2]; 4 h after administration,1.56 ± 0.07 % ID/g
same,Muscle,[2]; 4 h after administration,0.21 ± 0.04 % ID/g
same,Pancreas,[2]; 4 h after administration,0.54 ± 0.22 % ID/g
same,Spleen,[2]; 4 h after administration,2.39 ± 0.05 % ID/g
same,Stomach (% ID),[2]; 4 h after administration,0.13 ± 0.03 % ID
same,Blood,[2]; 24 h after administration,0.68 ± 0.17 % ID/g
same,Brain,[2]; 24 h after administration,0.07 ± 0.02 % ID/g
same,Heart,[2]; 24 h after administration,0.43 ± 0.07 % ID/g
same,Intestine,[2]; 24 h after administration,1.00 ± 0.44 % ID/g
same,Kidney,[2]; 24 h after administration,13.2 ± 2.41 % ID/g
same,LNCaP Tumor,[2]; 24 h after administration,2.09 ± 0.39 % ID/g
same,Liver,[2]; 24 h after administration,1.55 ± 0.32 % ID/g
same,Lung,[2]; 24 h after administration,0.97 ± 0.15 % ID/g
same,Muscle,[2]; 24 h after administration,0.21 ± 0.07 % ID/g
same,Pancreas,[2]; 24 h after administration,0.71 ± 0.10 % ID/g
same,Spleen,[2]; 24 h after administration,3.37 ± 0.75 % ID/g
same,Stomach (% ID),[2]; 24 h after administration,0.16 ± 0.05 % ID
same,Blood,[2]; 48 h after administration,0.27 ± 0.16 % ID/g
same,Brain,[2]; 48 h after administration,0.03 ± 0.02 % ID/g
same,Heart,[2]; 48 h after administration,0.32 ± 0.05 % ID/g
same,Intestine,[2]; 48 h after administration,0.79 ± 0.21 % ID/g
same,Kidney,[2]; 48 h after administration,8.58 ± 2.02 % ID/g
same,LNCaP Tumor,[2]; 48 h after administration,1.69 ± 0.77 % ID/g
same,Liver,[2]; 48 h after administration,1.28 ± 0.16 % ID/g
same,Lung,[2]; 48 h after administration,0.66 ± 0.24 % ID/g
same,Muscle,[2]; 48 h after administration,0.15 ± 0.06 % ID/g
same,Pancreas,[2]; 48 h after administration,0.71 ± 0.17 % ID/g
same,Spleen,[2]; 48 h after administration,2.63 ± 0.83 % ID/g
same,Stomach (% ID),[2]; 48 h after administration,0.07 ± 0.02 % ID
same,Blood,[2]; 96 h after administration,0.14 ± 0.04 % ID/g
same,Brain,[2]; 96 h after administration,0.09 ± 0.05 % ID/g
same,Heart,[2]; 96 h after administration,0.40 ± 0.12 % ID/g
same,Intestine,[2]; 96 h after administration,0.41 ± 0.17 % ID/g
same,Kidney,[2]; 96 h after administration,7.04 ± 3.28 % ID/g
same,LNCaP Tumor,[2]; 96 h after administration,1.05 ± 0.03 % ID/g
same,Liver,[2]; 96 h after administration,1.59 ± 0.57 % ID/g
same,Lung,[2]; 96 h after administration,0.70 ± 0.15 % ID/g
same,Muscle,[2]; 96 h after administration,0.14 ± 0.08 % ID/g
same,Pancreas,[2]; 96 h after administration,0.85 ± 0.39 % ID/g
same,Spleen,[2]; 96 h after administration,2.82 ± 0.87 % ID/g
same,Stomach (% ID),[2]; 96 h after administration,0.10 ± 0.03 % ID
same,Blood,[2]; 192 h after administration,0.07 ± 0.03 % ID/g
same,Brain,[2]; 192 h after administration,0.04 ± 0.00 % ID/g
same,Heart,[2]; 192 h after administration,0.33 ± 0.01 % ID/g
same,Intestine,[2]; 192 h after administration,0.13 ± 0.02 % ID/g
same,Kidney,[2]; 192 h after administration,3.47 ± 1.24 % ID/g
same,LNCaP Tumor,[2]; 192 h after administration,0.83 ± 0.11 % ID/g
same,Liver,[2]; 192 h after administration,1.20 ± 0.09 % ID/g
same,Lung,[2]; 192 h after administration,0.67 ± 0.05 % ID/g
same,Muscle,[2]; 192 h after administration,0.14 ± 0.09 % ID/g
same,Pancreas,[2]; 192 h after administration,1.04 ± 0.18 % ID/g
same,Spleen,[2]; 192 h after administration,3.46 ± 0.32 % ID/g
same,Stomach (% ID),[2]; 192 h after administration,0.05 ± 0.00 % ID
same,retention in blood / accumulation at the LNCaP tumor against the comparator (in words),[2]; any time point,less accumulated
same,tumor/kidney ratio compared with [^111In]In-PSMA-DA1 (in words),"[2]; mouse, in vivo",lower
